Experimental data from patent US20110230481A2, “DERIVATIVES OF TETRABROMOBENZIMIDAZOLE, A PROCESS FOR THE PREPARATION THEREOF, A PHARMACEUTICAL COMPOSITION COMPRISING THE SAME, A METHOD OF USING THE SAME, A METHOD FOR MODULATING OR REGULATING SERINE/THREONINE KINASES, AND SERINE/THREONINE KINASES MODULATING AGENT” (SELVITA S.A., priority 2009, published 2011).

Legend:
FLT3(ITD) = assay: KINOMEscan Max; type: binding, human; details: 1 μM
Method: (§1) Kinase panel profiling was performed at Ambit Kinomescan (http://www.ambitbio.com/technology/) using the “KINOMEscan™ Max” assay platform, a high-throughput method for screening small molecule compounds against large numbers of human kinases. KINOMEscan™ is based on a competition binding assay that quantitatively measures the ability of a compound to compete with an immobilized, active-site directed ligand. The assay is performed by combining three components: DNA-tagged kinase; immobilized ligand; and a test compound. The ability of the test compound to compete with the immobilized ligand is measured via quantitative PCR of the DNA tag. For a description of Ambit's assay protocol, see Fabian et al. A small molecule-kinase interaction map for clinical kinase inhibitors. Nat. Biotechnol. 23, 329-336 (2005).

EGFR(S572-I759del) = assay: KINOMEscan Max; type: binding, human; details: 1 μM
Method: as §1

[1] = system: EGFR(L747-S572del. P573S); assay: KINOMEscan Max; type: binding, human; details: 1 μM
Method: as §1

ISR1 = assay: KINOMEscan Max; type: binding, human; details: 1 μM
Method: as §1

panel of 440 kinases = assay: KINOMEscan Max, whole panel; type: binding, human; details: 1 μM
Method: as §1
Selectivity of kinase inhibition is one of the key parameters in therapeutic use of this class of compounds. Off-target inhibition could be one of the major safety and toxicity issues in drug development and use of the compounds for treatment of various disease conditions. For this reason, development of selective kinase inhibitors is desired, to limit possible adverse effects. Therefore compounds disclosed in the application were tested on a panel of 440 kinases to determine specificity in PIM kinase inhibition. Table 5 provides selectivity data for representative compound N-(3-aminopropyl)-4,5,6,7-tetrabromo-1H-benzo[d]imidazol-2-amine (compound 11). As indicated in the Table 5 when tested at 1 μM concentration N-(3-aminopropyl)-4,5,6,7-tetrabromo-1H-benzo[d]imidazol-2-amine inhibited substrate biding of only 12 kinases (2% of the whole panel)>90%, whereas for over 93% of the tested kinases in the panel, substrate binding was basically not affected by compound 11. Pim kinases, but also HIPK, DYRK and CLK kinases and FTL3 mutants were identified as the primary targets for inhibition by compound 11 and selectivity for Pim kinases over other kinases was further confirmed in radiometric kinase assays.

RET(M918T) = molecular target: T1, RET(M918T) (Homo sapiens, UniProt P07949, M918T); assay: KINOMEscan Max; type: binding
T1 construct: DNA tag (qPCR read-out)
T1 sequence (P07949 29-1114 M918T): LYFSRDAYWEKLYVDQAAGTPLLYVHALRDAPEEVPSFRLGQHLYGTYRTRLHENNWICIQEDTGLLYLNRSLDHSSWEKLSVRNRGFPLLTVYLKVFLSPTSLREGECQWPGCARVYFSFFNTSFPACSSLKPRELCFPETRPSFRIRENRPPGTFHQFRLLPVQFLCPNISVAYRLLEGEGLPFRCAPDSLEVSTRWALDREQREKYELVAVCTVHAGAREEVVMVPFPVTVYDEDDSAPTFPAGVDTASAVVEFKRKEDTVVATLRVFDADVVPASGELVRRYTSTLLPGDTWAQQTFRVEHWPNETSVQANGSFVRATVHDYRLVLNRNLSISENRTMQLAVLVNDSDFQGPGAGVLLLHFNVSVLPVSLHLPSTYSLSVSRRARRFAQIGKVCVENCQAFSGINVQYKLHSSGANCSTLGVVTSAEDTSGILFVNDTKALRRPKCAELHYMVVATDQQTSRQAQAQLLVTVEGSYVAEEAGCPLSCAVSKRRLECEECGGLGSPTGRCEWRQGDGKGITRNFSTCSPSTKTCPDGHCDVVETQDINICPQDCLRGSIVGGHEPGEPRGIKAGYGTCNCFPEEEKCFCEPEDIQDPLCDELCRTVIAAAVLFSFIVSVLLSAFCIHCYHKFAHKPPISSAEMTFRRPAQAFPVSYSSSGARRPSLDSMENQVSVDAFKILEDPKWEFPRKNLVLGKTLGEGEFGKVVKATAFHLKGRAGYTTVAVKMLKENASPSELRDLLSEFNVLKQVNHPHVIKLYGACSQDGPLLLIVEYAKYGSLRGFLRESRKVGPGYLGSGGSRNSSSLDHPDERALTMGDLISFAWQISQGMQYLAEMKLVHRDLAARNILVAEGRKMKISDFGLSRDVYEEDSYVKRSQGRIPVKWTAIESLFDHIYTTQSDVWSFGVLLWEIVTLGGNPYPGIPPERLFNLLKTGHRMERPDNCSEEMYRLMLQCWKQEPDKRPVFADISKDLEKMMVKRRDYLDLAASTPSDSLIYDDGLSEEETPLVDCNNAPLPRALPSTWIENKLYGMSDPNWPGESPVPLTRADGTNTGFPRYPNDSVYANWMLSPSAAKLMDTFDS
Outline: (§2)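 Binding was measured by competition: compounds were tested for their ability to displace DNA-tagged kinases from an immobilized ligand directed at the active site, with quantitative PCR of the tag as read-out.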

EPHA1 = molecular target: T2, EPHA1 (Homo sapiens, UniProt P21709); assay: KINOMEscan Max; type: binding
T2 construct: purchased Ambit (KINOMEscan Max panel service)
T2 sequence (P21709 26-976): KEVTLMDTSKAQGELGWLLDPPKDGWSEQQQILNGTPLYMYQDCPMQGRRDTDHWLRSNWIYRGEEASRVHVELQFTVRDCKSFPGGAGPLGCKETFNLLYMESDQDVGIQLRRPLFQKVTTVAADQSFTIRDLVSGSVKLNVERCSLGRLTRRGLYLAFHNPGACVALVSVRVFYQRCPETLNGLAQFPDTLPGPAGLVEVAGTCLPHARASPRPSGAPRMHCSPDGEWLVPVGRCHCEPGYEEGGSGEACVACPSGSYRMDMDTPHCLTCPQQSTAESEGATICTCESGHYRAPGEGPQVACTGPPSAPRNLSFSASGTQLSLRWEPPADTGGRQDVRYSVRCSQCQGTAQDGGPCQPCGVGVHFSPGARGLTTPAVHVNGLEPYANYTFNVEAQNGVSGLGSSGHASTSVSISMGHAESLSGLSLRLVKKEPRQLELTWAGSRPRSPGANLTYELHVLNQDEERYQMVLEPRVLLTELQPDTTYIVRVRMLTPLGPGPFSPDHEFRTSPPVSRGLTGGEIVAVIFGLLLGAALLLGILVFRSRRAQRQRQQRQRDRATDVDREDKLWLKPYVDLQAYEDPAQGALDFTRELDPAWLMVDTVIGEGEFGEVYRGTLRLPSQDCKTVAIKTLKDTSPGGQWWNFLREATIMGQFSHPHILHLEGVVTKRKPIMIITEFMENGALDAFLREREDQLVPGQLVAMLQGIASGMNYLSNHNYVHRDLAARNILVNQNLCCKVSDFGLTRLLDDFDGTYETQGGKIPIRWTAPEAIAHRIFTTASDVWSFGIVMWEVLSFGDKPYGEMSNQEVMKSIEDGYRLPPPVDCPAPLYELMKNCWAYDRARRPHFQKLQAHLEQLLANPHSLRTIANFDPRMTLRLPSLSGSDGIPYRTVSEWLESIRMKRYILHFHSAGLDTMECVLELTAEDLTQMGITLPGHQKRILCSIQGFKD
Outline: as §2

SNRK = molecular target: T3, SNRK (Homo sapiens, UniProt Q9NRH2); assay: KINOMEscan Max; type: binding
T3 construct: DNA tag (qPCR read-out)
Outline: as §2

CDK8 = molecular target: T4, CDK8 (Homo sapiens, UniProt P49336); assay: KINOMEscan Max; type: binding; details: 1 μM
T4 construct: purchased Ambit (KINOMEscan Max service)
Outline: as §2

BTK = molecular target: T5, BTK (Homo sapiens, UniProt Q06187); assay: KINOMEscan Max; type: binding; details: 1 μM
T5 construct: purchased Ambit (KINOMEscan Max service)
Outline: as §2

RET(V804M) = molecular target: T6, RET(V804M) (Homo sapiens, UniProt P07949, V804M); assay: KINOMEscan Max; type: binding
T6 construct: DNA tag (qPCR read-out)
T6 sequence (P07949 29-1114 V804M): as the sequence (P07949 29-1114 M918T) above, with V776M, T890M counted along it
Outline: as §2

MYLK = molecular target: T7, MYLK (Homo sapiens, UniProt Q15746); assay: KINOMEscan Max; type: binding
T7 construct: purchased Ambit (KINOMEscan Max service)
Outline: as §2

ERBB4 = molecular target: T8, ERBB4 (Homo sapiens, UniProt Q15303); assay: KINOMEscan Max; type: binding
T8 construct: purchased Ambit Kinomescan (contract panel, KINOMEscan Max)
Outline: as §2

NLK = NLK (Homo sapiens, UniProt Q9UBE8); assay: KINOMEscan Max; type: binding
Outline: as §2

SNARK = molecular target: T9, SNARK (Homo sapiens, UniProt Q9H093); assay: KINOMEscan Max; type: binding; details: 1 μM
T9 construct: DNA tag (qPCR read-out)
T9 sequence (Q9H093 whole entry): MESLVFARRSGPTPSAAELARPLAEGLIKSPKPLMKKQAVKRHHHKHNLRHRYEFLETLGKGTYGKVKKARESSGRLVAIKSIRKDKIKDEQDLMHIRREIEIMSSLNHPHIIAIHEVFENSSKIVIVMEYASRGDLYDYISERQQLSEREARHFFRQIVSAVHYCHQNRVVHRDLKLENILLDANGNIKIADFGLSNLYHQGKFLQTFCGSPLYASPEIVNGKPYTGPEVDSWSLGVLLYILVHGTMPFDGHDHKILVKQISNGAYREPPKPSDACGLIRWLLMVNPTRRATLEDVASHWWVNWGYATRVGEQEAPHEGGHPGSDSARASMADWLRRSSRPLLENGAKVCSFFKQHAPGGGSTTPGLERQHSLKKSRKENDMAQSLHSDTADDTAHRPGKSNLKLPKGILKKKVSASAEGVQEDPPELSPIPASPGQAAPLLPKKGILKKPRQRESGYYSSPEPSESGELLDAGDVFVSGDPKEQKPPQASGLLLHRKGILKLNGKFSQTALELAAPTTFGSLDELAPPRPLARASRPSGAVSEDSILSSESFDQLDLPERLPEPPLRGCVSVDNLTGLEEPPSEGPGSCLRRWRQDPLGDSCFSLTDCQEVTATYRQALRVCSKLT
Outline: as §2

MARK3 = molecular target: T10, MARK3 (Homo sapiens, UniProt P27448); assay: KINOMEscan Max; type: binding
T10 construct: purchased Ambit Kinomescan (contract panel)
Outline: as §2

GRK1 = GRK1 (Homo sapiens, UniProt Q15835); assay: KINOMEscan Max; type: binding
Outline: as §2

RIPK4 = molecular target: T11, RIPK4 (Homo sapiens, UniProt P57078); assay: KINOMEscan Max; type: binding
T11 construct: DNA tag (qPCR read-out)
T11 sequence (P57078 whole entry): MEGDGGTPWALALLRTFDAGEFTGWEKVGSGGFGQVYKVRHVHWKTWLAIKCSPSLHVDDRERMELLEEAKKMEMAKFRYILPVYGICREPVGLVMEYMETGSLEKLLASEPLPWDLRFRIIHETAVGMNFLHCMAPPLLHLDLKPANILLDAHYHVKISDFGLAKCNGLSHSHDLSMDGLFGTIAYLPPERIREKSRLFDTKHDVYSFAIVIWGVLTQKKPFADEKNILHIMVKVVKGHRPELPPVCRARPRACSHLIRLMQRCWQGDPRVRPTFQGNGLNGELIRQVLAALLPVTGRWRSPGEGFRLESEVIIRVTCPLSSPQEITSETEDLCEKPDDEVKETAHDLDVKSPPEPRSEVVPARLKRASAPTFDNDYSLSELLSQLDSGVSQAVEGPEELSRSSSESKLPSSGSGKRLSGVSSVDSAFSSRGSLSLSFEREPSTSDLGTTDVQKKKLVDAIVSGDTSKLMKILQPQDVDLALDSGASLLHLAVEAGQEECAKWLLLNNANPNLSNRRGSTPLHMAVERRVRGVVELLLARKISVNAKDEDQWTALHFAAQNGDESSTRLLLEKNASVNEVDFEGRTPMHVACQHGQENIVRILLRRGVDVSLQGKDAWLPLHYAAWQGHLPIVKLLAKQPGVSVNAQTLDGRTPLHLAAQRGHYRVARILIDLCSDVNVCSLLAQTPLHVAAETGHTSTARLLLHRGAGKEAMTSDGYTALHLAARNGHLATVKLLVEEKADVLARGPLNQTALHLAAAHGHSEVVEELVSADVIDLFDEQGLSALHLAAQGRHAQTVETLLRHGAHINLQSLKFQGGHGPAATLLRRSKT
Outline: as §2

HPK1 = molecular target: T12, HPK1 (Homo sapiens, UniProt Q92918); assay: KINOMEscan Max; type: binding
T12 construct: purchased Ambit Kinomescan (contract panel, KINOMEscan Max)
Outline: as §2

RIPK5 = molecular target: T13, RIPK5 (Homo sapiens, UniProt Q6XUX3); assay: KINOMEscan Max; type: binding
T13 construct: DNA tag (qPCR read-out)
Outline: as §2

[2] = molecular target: T14, RPS6KA5(Kin.Dom.2-C-terminal) (Homo sapiens, UniProt O75582); assay: KINOMEscan Max; type: binding
T14 construct: RPS6KA5(Kin.Dom.2-C-terminal); DNA tag (qPCR read-out)
Outline: as §2

PAK7 = molecular target: T15, PAK7 (Homo sapiens, UniProt Q9P286); assay: KINOMEscan Max; type: binding
T15 construct: DNA tag (qPCR read-out)
T15 sequence (Q9P286 whole entry): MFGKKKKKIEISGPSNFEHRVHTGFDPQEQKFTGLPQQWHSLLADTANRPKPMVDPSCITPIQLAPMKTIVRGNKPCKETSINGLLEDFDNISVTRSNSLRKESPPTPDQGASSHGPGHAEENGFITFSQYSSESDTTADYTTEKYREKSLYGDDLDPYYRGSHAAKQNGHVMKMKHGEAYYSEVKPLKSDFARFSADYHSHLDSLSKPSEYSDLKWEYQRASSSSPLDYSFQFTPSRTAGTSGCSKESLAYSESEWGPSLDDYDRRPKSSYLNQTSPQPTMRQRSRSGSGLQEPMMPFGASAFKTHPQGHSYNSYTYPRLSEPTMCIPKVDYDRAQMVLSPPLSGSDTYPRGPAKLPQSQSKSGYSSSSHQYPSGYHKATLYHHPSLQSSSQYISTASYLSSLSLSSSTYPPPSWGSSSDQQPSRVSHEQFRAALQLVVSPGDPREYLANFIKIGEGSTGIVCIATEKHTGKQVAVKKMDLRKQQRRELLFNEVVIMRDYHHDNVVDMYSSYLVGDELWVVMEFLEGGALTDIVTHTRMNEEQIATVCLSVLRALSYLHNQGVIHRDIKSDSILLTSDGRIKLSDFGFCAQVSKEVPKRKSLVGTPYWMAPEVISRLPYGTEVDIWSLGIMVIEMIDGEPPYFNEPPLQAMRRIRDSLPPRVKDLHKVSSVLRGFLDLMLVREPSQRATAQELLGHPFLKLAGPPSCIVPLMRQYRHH
Outline: as §2

DCAMKL2 = molecular target: T16, DCAMKL2 (Homo sapiens, UniProt Q8N568); assay: KINOMEscan Max; type: binding
T16 construct: purchased Ambit (KINOMEscan Max panel service)
Outline: as §2

PAK1 = molecular target: T17, PAK1 (Homo sapiens, UniProt Q13153); assay: KINOMEscan Max; type: binding
T17 construct: DNA tag (qPCR read-out)
Outline: as §2

PIM2 = PIM2 (Homo sapiens, UniProt Q9P1W9); assay: KINOMEscan Max; type: binding; design: DNA tag (qPCR read-out); purchased Ambit Kinomescan
PIM2, sequence (Q9P1W9 whole entry): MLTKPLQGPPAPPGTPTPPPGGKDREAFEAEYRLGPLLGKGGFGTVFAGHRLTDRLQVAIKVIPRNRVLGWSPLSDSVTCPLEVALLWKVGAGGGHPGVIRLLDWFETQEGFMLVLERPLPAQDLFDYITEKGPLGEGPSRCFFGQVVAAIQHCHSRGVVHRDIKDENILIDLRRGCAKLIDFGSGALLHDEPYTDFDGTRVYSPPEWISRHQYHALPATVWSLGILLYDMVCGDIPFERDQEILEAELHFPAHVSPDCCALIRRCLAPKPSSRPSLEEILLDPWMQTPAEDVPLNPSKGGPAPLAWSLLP
Method: as §1

CLK1 = CLK1 (Homo sapiens, UniProt P49759); assay: KINOMEscan Max; type: binding; design: DNA tag (qPCR read-out); purchased Ambit Kinomescan
CLK1, sequence (P49759 whole entry): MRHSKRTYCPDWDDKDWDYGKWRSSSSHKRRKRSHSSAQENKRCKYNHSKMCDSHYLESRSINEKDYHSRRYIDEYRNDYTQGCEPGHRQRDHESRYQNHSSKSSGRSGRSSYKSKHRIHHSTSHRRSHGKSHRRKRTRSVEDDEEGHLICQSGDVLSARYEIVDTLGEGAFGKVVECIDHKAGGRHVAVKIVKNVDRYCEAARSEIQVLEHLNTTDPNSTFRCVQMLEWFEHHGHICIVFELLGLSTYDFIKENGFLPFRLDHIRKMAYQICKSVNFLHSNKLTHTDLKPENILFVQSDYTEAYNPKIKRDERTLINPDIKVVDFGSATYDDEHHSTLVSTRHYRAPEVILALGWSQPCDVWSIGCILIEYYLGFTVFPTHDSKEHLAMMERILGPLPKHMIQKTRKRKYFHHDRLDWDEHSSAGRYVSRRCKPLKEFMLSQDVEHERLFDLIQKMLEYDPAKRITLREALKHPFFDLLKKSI
Method: as §1

PIM3 = PIM3 (Homo sapiens, UniProt Q86V86); assay: KINOMEscan Max; type: binding; design: DNA tag (qPCR read-out); purchased Ambit Kinomescan
Method: as §1

In the case of NCCCNc1nc2c(Br)c(Br)c(Br)c(Br)c2[nH]1 [Compound 11, N-(3-aminopropyl)-4,5,6,7-tetrabromo-1H-benzo[d]imidazol-2-amine], the “% binding” value (FLT3(ITD)) is reported as 35%, the “% binding” value (EGFR(S572-I759del)) is reported as 99% and the “% binding” value [1] is reported as 86%. For the same compound, the “% binding” value (ISR1) was 81%, the “number of kinases with substrate binding inhibited >90%” value (panel of 440 kinases) was 12 and the “share of tested kinases with substrate binding basically not affected” value (panel of 440 kinases) was “over 93%”. For the same compound, the “share of the whole panel with substrate binding inhibited >90%” value (panel of 440 kinases) was 2%, the remaining binding at 1 µM (RET(M918T)) was 100% and the remaining binding at 1 µM (EPHA1) was 100%. The remaining binding at 1 µM (SNRK) was 100%, the “% binding” value (CDK8) was 68% and the “% binding” value (BTK) was 85%. It also gave a remaining binding at 1 µM (RET(V804M)) of 100%, a remaining binding at 1 µM (MYLK) of 58% and a remaining binding at 1 µM (ERBB4) of 100%. The remaining binding at 1 µM (NLK) was 100%, the “% binding” value (SNARK) was 54% and the remaining binding at 1 µM (MARK3) was 100%. It also gave a remaining binding at 1 µM (GRK1) of 96%, a remaining binding at 1 µM (RIPK4) of 100% and a remaining binding at 1 µM (HPK1) of 100%. The remaining binding at 1 µM (RIPK5) was 100%, the remaining binding at 1 µM [2] was 100% and the remaining binding at 1 µM (PAK7) was 90%. The remaining binding at 1 µM (DCAMKL2) was 100%, the remaining binding at 1 µM (PAK1) was 91% and the remaining binding at 1 µM (PIM2) was 0.85%. It also gave a remaining binding at 1 µM (CLK1) of 5.1% and a remaining binding at 1 µM (PIM3) of 5.2%.
For CN(C)c1nc2c(Br)c(Br)c(Br)c(Br)c2[nH]1 [DMAT, reference compound], the “Solubility [mM] in phosphate buffer pH 7.4” value was under 0.01 mM.
